The assay concerns the target T1, Monoglyceride lipase (Homo sapiens, UniProt Q99685).
T1 sequence (Q99685 whole entry): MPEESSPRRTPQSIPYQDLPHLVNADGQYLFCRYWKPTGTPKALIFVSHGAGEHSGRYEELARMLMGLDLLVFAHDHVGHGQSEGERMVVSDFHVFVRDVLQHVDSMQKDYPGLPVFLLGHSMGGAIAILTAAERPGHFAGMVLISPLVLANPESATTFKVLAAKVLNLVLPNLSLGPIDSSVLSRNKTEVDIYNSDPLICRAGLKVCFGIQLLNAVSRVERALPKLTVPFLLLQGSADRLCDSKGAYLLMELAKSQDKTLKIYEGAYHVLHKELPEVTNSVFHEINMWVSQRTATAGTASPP
The assay is described as follows: MAGL Inhibitory Activity Assay. On the procedure:
The plate was shaked for 1 min at 2000 rpm (Variomag Teleshake) and then incubated for 15 min at RT. […] The final concentrations in the assay were 1 nM MAGL and 300 μM 4-Nitrophenylacetate. […] A second measurement was then done after incubation for 80 min at RT. From the two measurements, the slope was calculated by subtracting the first from the second measurement.

`O=C1CO[C@H]2CCN(C(=O)N3CC(OCc4cccc(OC(F)(F)F)c4)C3)C[C@H]2N1` [US11802133, Example 226] had an IC50 of 45 nM. Consider `O=C1CO[C@H]2CCN(C(=O)N3CC(CCc4ccc(O)cc4C(F)(F)F)C3)C[C@H]2N1` [US11802133, Example 293], for which the IC50 came to 30 nM.
